In patent US7572799B2, “Pyrazolo[4,3-d]pyrimidines as Phosphodiesterase Inhibitors” (Pfizer Inc, priority 2003, dated 2009) one finds IC50 data, which are given here for 19 molecules.

Like-named read-outs stand apart in the source and are kept apart here.

This assay deals with PDE-5 (UniProt O76074). In words: In vitro PDE inhibitory activity against PDE5 (batch method or scintillation proximity assay). Conditions: representative compounds. It is filed as biochemical, human. For orientation: SPA uses beads or plates that emit light when radiolabelled molecules are held near them.

The term IC50 denotes the concentration needed to halve the response being measured. Regarding `CCOCCn1nc(C(=O)O)c2nc(N(CC)CC)nc(Nc3ccc(=O)n(C)c3)c21` [Example 125, 5-(Diethylamino)-1-(2-ethoxyethyl)-7-[(1-methyl-6-oxo-1,6-dihydropyridin-3-yl)amino]-1H-pyrazolo[4,3-]pyrimidine-3-carboxylic acid], where the note is “read-out: IC50”, the IC50 worked out at 1.53 nM. The same measure, in the same setting: then `CCOCCn1nc(C(=O)OC)c2nc(N3CCN[C@H](C)C3)nc(Nc3cc(C)ccn3)c21` [Example 3], with 5.01 nM; and `CCOCCn1nc(C(=O)OC)c2nc(N3C[C@@H]4C[C@H]3CN4)nc(Nc3cc(C)ccn3)c21` [Example 4], with 2.62 nM; and `CCN(C)c1nc(Nc2cc(C)ccn2)c2c(n1)c(C(=O)NS(C)(=O)=O)nn2CCOCC(F)(F)F` [Example 178, 5-[Ethyl(methyl)amino]-7-[(4-methylpyridin-2-yl)amino]-N-(methylsulfonyl)-1-[2-(2,2,2-trifluoroethoxy)ethyl]-1H-pyrazolo[4,3-]pyrimidine-3-carboxamide], with 2.21 nM. On to `CCOCCn1nc(C(=O)O)c2nc(N(C)CC)nc(Nc3cc(C)c(C)cn3)c21` [Example 40], for which, under “read-out: IC50”, the IC50 was 0.167 nM. On the same count and under the same terms, in the case of `CCOCCn1nc(C(=O)O)c2nc(N3CCCC3)nc(Nc3cc(C)ccn3)c21` [Example 134, 1-(2-Ethoxyethyl)-7-[(4-methylpyridin-2-yl)amino]-5-pyrrolidin-1-yl-1H-pyrazolo[4,3-d]pyrimidine-3-carboxylic acid] it was 5.02 nM; in that of `CCOCCn1nc(-c2nc(=O)o[nH]2)c2nc(N(CC)CC)nc(Nc3ccc(F)c(C)c3)c21` [Example 78], 0.24 nM; in that of `Cc1ccnc(Nc2nc(N(C)C(C)C)nc3c(C(=O)NS(C)(=O)=O)nn(CCOCC(F)F)c23)c1` [Example 181], 1.29 nM. In turn, `CCOCCn1nc(C(=O)O)c2nc(N(C)C)nc(NC3CCC3)c21` [Example 33] registered a concentration for half-maximal inhibition (IC50) of 100 nM. For the molecule `CCOCCn1nc(C(=O)O)c2nc(N(C)C(C)C)nc(Nc3ccnc(C)n3)c21` [Example 72], the IC50 (read-out: IC50) came to 59.2 nM. On the same count and under the same terms, then `CCN(CC)c1nc(Nc2cc(C)ccn2)c2c(n1)c(C(=O)O)nn2C[C@@H](C)OC` [Example 66], with 13.5 nM; and `CCOCCn1nc(-c2nc(=O)o[nH]2)c2nc(N(C)C(C)C)nc(Nc3cc(C)ccn3)c21` [Example 75, 3-[1-(2-Ethoxyethyl)-5-(N-isopropyl-N-methylamino)-7-(4-methylpyridin-2-ylamino)-1H-pyrazolo[4,3-d]pyrimidin-3-yl]-2H-1,2,4-oxadiazol-5-one], with 0.371 nM. As to `CCOCCn1nc(C(=O)OC)c2nc(N(C)CC)nc(Nc3cc(C)ccn3)c21` [Example 2], the IC50 (read-out: IC50) worked out at 0.201 nM.

Consider `CCOCCn1nc(C(=O)O)c2nc(N(C)CC)nc(Nc3ccnc(OC)n3)c21` [Example 70], for which, for the setting “read-out: IC50”, the 50% inhibitory concentration (IC50) worked out at 0.451 nM.

For `CCOCCn1nc(C(=O)O)c2nc(N(C)C(C)C)nc(Nc3ccc(F)cn3)c21` [Example 81, 1-(2-Ethoxyethyl)-7-(5-fluoropyridin-2-ylamino)-5-(N-isopropyl-N-methylamino)-1H-pyrazolo[4,3-d]pyrimidine-3-carboxylic acid], the IC50 (read-out: IC50) turned out to be 16.7 nM. Same read-out and setting: in the case of `Cc1ccnc(Nc2nc(N(C)C(C)C)nc3c(C(=O)O)nn(CCOCC4CC4)c23)c1` [Example 108] it was 18.3 nM. On the same count and under the same terms, in the case of `CCN(CC)c1nc(Nc2cc(C)ccn2)c2c(n1)c(C(=O)NS(C)(=O)=O)nn2CCOCCCF` [Example 177] it was 0.17 nM; in that of `CCOCCn1nc(C(=O)OC)c2nc(N(C)C(C)C)nc(Nc3cccc(C)n3)c21` [Example 6, Methyl 1-(2-ethoxyethyl)-5-(N-isopropyl-N-methylamino)-7-(6-methylpyridin-2-ylamino) -1H-pyrazolo[4,3-d]pyrimidine-3-carboxylate], 2.89 nM.

Turning to `CCN(CC)c1nc(Nc2cc(C)ccn2)c2c(n1)c(C(=O)O)nn2CCOCC(F)(F)F` [Example 128, 5-(Diethylamino)-7-[(4-methylpyridin-2-yl)amino]-1-[2-(2,2,2-trifluoroethoxy)ethyl]-1H-pyrazolo[4,3-d]pyrimidine-3-carboxylic acid], the 50% inhibitory concentration (IC50) (read-out: IC50) came to 3.94 nM.
